Source: patent US11214803B2, “Modulators of YAP1 expression” (Ionis Pharmaceuticals, Inc., priority 2019, dated 2022)
Strand notation (5' to 3'): a small letter for the sugar, then the base; units joined by * are phosphorothioate-linked, units joined directly phosphodiester-linked; [ ] holds rarer units or linkages, { } end groups; capitals alone tell only the bases. e = 2'-O-(2-methoxyethyl) (MOE); k = constrained ethyl (cEt); [5mC] = 5-methylcytosine; d = 2'-deoxy (DNA); m = 2'-O-methyl

Tested on: Yap1 mRNA
Experiment: Antisense inhibition of human Yap1 in SNU-449 cells by modified oligonucleotides, single dose (Example 5, RTS36584)
Format: cell-based
Summary of the method: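 Values are % of untreated control: Yap1 mRNA by quantitative RT-PCR (RTS36584), normalized to RIBOGREEN total RNA. Oligonucleotides were dosed at 2,000 nM, free uptake, in SNU-449 cells, with roughly 48 h exposure before RNA isolation.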

[1] = Table 42 (separate experiment), SNU-449 cells, 10,000 cells per well, free uptake, 2,000 nM modified oligonucleotide, approximately 48 hours, RTS36584, normalized to RIBOGREEN, Yap1 mRNA relative to untreated control cells
[2] = Table 45, Yap1 mRNA as percent of untreated control, SNU-449 cells, single dose
[3] = Table 39, SNU-449 cells, 10,000 cells per well, free uptake, 2,000 nM oligonucleotide, approx. 48 hours, RTS36584, normalized to RIBOGREEN, Yap1 mRNA relative to untreated control
[4] = Table 51, Yap1 mRNA remaining as percent of untreated control (UT), SNU-449 cells, single dose
[5] = Yap1 mRNA, percent of untreated control, modified oligonucleotides targeting SEQ ID NO: 1 and 2, Table 47
[6] = Table 48, Yap1 mRNA level relative to untreated control, modified oligonucleotides targeting SEQ ID NO.: 1 and 2
[7] = Table 52, Yap1 mRNA, modified oligonucleotides targeting SEQ ID NO: 1 and 2
[8] = Table 41, SNU-449 cells, 10,000 cells per well, free uptake, 2,000 nM modified oligonucleotide, approximately 48 hours, RTS36584, normalized to RIBOGREEN, Yap1 mRNA relative to untreated control cells
[9] = Table 44 experiment, SNU-449 cells, 10,000 cells per well, free uptake, 2,000 nM, approximately 48 hours, RTS36584, Yap1 mRNA normalized to RIBOGREEN, relative to untreated control cells
[10] = Table 50, Yap1 mRNA remaining as percent of untreated control (UT), SNU-449 cells, single dose
[11] = Table 46, Yap1 mRNA as percent of untreated control, SNU-449 cells, single dose
[12] = Table 40 (separate experiment), SNU-449 cells, 10,000 cells per well, free uptake, 2,000 nM oligonucleotide, approx. 48 hours, RTS36584, normalized to RIBOGREEN, Yap1 mRNA relative to untreated control
[13] = Table 43 experiment, SNU-449 cells, 10,000 cells per well, free uptake, 2,000 nM, approximately 48 hours, RTS36584, Yap1 mRNA normalized to RIBOGREEN, relative to untreated control cells

1198686 (antisense kG*kA*d[5mC]*dA*dA*d[5mC]*dT*d[5mC]*dT*dT*dA*dT*kA*eT*kG*eG) [Compound 1198686]
YAP1 (% UTC) [1]: 78 % UTC

1198933 (kT*kT*dT*dA*dG*dG*dA*dT*dG*d[5mC]*dA*kT*dG*kG*dT*kT; antisense) [Compound 1198933]
YAP1 (% UTC) [2]: 69 % UTC

1198415 (kG*dA*dT*dT*dT*dA*dG*dG*dA*dT*dG*k[5mC]*eA*kT*eG*kG; antisense) [Compound 1198415]
YAP1 (% UTC) [3]: 29 % UTC

1198404 (kT*dT*dT*dG*dG*dA*dA*dG*dA*dT*d[5mC]*kT*eG*kA*eA*kA) [Compound 1198404]
YAP1 (% UTC) [3]: 55 % UTC

1197300 (kG*kA*kT*dT*mU*dA*dG*dG*dA*dT*dG*d[5mC]*dA*kT*kG*kG; antisense) [Compound 1197300]
YAP1 (% UT) [4]: 42 % UT

1198416 (kA*dG*dA*dT*dT*dT*dA*dG*dG*dA*dT*kG*e[5mC]*kA*eT*kG; antisense) [Compound 1198416]
YAP1 (% UTC) [3]: 29 % UTC

1198913 (kT*kT*dA*d[5mC]*dA*dT*dT*dA*dG*dG*dA*kA*d[5mC]*kA*dA*kG; antisense) [Compound 1198913]
YAP1 (% UTC) [2]: 86 % UTC

1197191 (antisense kA*kG*kT*dG*d[5mC]*dT*dT*dT*dG*dG*dA*dA*dG*kA*kT*k[5mC]) [Compound 1197191]
YAP1 (% UT) [5]: 40 % UT

1197217 (antisense kT*kT*kA*dA*dA*dG*dT*dG*dT*dA*dT*dG*dT*k[5mC]*kA*kG) [Compound 1197217]
YAP1 (% UT) [6]: 8 % UT

1200807 (k[5mC]*kT*kG*dA*dG*mG*dT*dA*dT*dA*dA*d[5mC]*dT*kG*kG*kG; antisense) [Compound 1200807]
YAP1 (% UT) [7]: 69 % UT

1198635 (kA*kT*dG*dG*dA*dA*dA*dT*dT*dG*dT*d[5mC]*kT*e[5mC]*kA*eT; antisense) [Compound 1198635]
YAP1 (% UTC) [8]: 57 % UTC

1198534 (kA*kG*dT*dA*dA*dG*dG*dT*dT*dT*d[5mC]*e[5mC]*k[5mC]*eA*kG*eA; antisense) [Compound 1198534]
YAP1 (% UTC) [9]: 30 % UTC

1200796 (kT*kT*kA*dG*dA*mG*dT*dA*dT*dG*dT*dG*dG*k[5mC]*kA*kA; antisense) [Compound 1200796]
YAP1 (% UT) [4]: 15 % UT

1198513 (k[5mC]*kA*dA*d[5mC]*dT*d[5mC]*dT*dT*dA*dT*dA*eT*kG*eG*kT*eT; antisense) [Compound 1198513]
YAP1 (% UTC) [9]: 63 % UTC

1198378 (kA*dT*dA*dT*dG*dG*dA*dA*dA*dT*dT*kG*eT*k[5mC]*eT*k[5mC]; antisense) [Compound 1198378]
YAP1 (% UTC) [3]: 39 % UTC

1198596 (antisense k[5mC]*kT*k[5mC]*dT*dT*dA*dT*dA*dT*dG*dG*dT*kT*kT*kT*eG) [Compound 1198596]
YAP1 (% UT) [10]: 16 % UT

1198903 (kA*kT*dT*dA*dG*dA*dG*dT*dA*dT*dG*kT*dG*kG*d[5mC]*kA; antisense) [Compound 1198903]
YAP1 (% UTC) [9]: 24 % UTC

1197265 (kT*kA*kA*dT*mA*dT*dT*dG*d[5mC]*dA*dA*dT*d[5mC]*kT*kG*kT) [Compound 1197265]
YAP1 (% UT) [4]: 103 % UT

1198611 (antisense kA*kG*kT*dG*dT*dA*dT*dG*dT*d[5mC]*dA*dG*kA*kA*kG*eA) [Compound 1198611]
YAP1 (% UT) [10]: 7 % UT

1198450 (kT*dA*dA*dG*dT*dA*dA*dG*dG*dT*dT*kT*e[5mC]*k[5mC]*e[5mC]*kA; antisense) [Compound 1198450]
YAP1 (% UTC) [3]: 42 % UTC

1198693 (antisense kA*kT*dG*dT*dA*dA*dT*dA*dT*dT*dG*d[5mC]*kA*eA*kT*e[5mC]) [Compound 1198693]
YAP1 (% UTC) [1]: 92 % UTC

1197179 (antisense kT*kG*kG*dA*dA*dA*dT*dT*dG*dT*d[5mC]*dT*d[5mC]*kA*kT*kG) [Compound 1197179]
YAP1 (% UT) [5]: 16 % UT

1198343 (kA*kT*kT*dG*d[5mC]*dA*dA*dT*d[5mC]*dT*dG*dT*k[5mC]*eT*kG*eA; antisense) [Compound 1198343]
YAP1 (% UT) [6]: 39 % UT

1198199 (kA*kT*dT*dG*dT*d[5mC]*dT*d[5mC]*dA*dT*dG*e[5mC]*e[5mC]*eT*kT*kA; antisense) [Compound 1198199]
YAP1 (% UTC) [1]: 38 % UTC

1198837 (kT*kT*dG*dG*dA*dA*dG*dA*dT*d[5mC]*dT*kG*eA*kA*eA*k[5mC]; antisense) [Compound 1198837]
YAP1 (% UT) [11]: 66 % UT

1198446 (kA*dA*d[5mC]*dT*dT*dT*dA*dA*dA*dG*dT*kG*eT*kA*eT*kG; antisense) [Compound 1198446]
YAP1 (% UTC) [12]: 83 % UTC

1200860 (kT*kA*kA*dA*dG*mU*dG*dT*dA*dT*dG*dT*d[5mC]*kA*kG*kA; antisense) [Compound 1200860]
YAP1 (% UT) [7]: 16 % UT

1197306 (k[5mC]*kA*kA*d[5mC]*mU*d[5mC]*dT*dT*dA*dT*dA*dT*dG*kG*kT*kT; antisense) [Compound 1197306]
YAP1 (% UT) [4]: 77 % UT

1198284 (kT*kG*kT*d[5mC]*dT*d[5mC]*dA*dT*dG*d[5mC]*d[5mC]*dT*kT*eA*kT*eA; antisense) [Compound 1198284]
YAP1 (% UT) [6]: 27 % UT

1198769 (kT*eT*kA*dT*dA*dT*dG*dG*dT*dT*dT*dT*eG*eT*kG*kT; antisense) [Compound 1198769]
YAP1 (% UTC) [8]: 77 % UTC

1198871 (kT*kT*dT*dA*dT*dG*dT*dA*dA*dT*dA*kT*eT*kG*e[5mC]*kA; antisense) [Compound 1198871]
YAP1 (% UT) [11]: 77 % UT

1197279 (kT*kT*kA*dG*mA*d[5mC]*dT*dA*dA*dG*dT*dA*dA*kG*kG*kT) [Compound 1197279]
YAP1 (% UT) [4]: 54 % UT

1198473 (antisense kT*k[5mC]*dT*dA*dT*dA*dT*dT*dA*dG*dA*eG*kT*eA*kT*eG) [Compound 1198473]
YAP1 (% UTC) [13]: 66 % UTC

1197241 (antisense kA*k[5mC]*kT*dG*mA*dG*dG*dT*dA*dT*dA*dA*d[5mC]*kT*kG*kG) [Compound 1197241]
YAP1 (% UT) [4]: 19 % UT

1198293 (kA*kG*kT*dA*dT*dG*dT*dG*dG*d[5mC]*dA*dA*kT*eA*kA*eT; antisense) [Compound 1198293]
YAP1 (% UT) [6]: 25 % UT

1198672 (antisense kA*kT*dT*dT*dA*dG*dG*dA*dT*dG*d[5mC]*dA*kT*eG*kG*eT) [Compound 1198672]
YAP1 (% UTC) [8]: 41 % UTC

1198701 (kT*kT*dA*dA*dA*dG*dT*dG*dT*dA*dT*dG*kT*e[5mC]*kA*eG; antisense) [Compound 1198701]
YAP1 (% UTC) [1]: 46 % UTC

1198218 (kA*kG*dG*dT*dA*dT*dA*dA*d[5mC]*dT*dG*eG*eG*e[5mC]*kA*kA; antisense) [Compound 1198218]
YAP1 (% UTC) [13]: 40 % UTC

1198784 (antisense kT*eA*kT*dG*dT*dA*dA*dT*dA*dT*dT*dG*e[5mC]*eA*kA*kT) [Compound 1198784]
YAP1 (% UTC) [12]: 94 % UTC

1095482 (antisense k[5mC]*kT*dG*dA*dG*dG*dT*dA*dT*dA*dA*d[5mC]*kT*eG*kG*eG) [Compound 1095482]
YAP1 (% UTC) [1]: 72 % UTC

1198719 (kG*eG*kA*dA*dA*dT*dT*dG*dT*d[5mC]*dT*d[5mC]*eA*eT*kG*k[5mC]; antisense) [Compound 1198719]
YAP1 (% UTC) [12]: 14 % UTC

1198792 (antisense kT*eT*kT*dA*dA*dA*dG*dT*dG*dT*dA*dT*eG*eT*k[5mC]*kA) [Compound 1198792]
YAP1 (% UTC) [8]: 48 % UTC
